Some test systems named below: COLO 205 colon; OVCAR-3 ovarian; SF-295 CNS; MCF7 breast; SN12C renal; UO-31 renal; NCI-H460 lung; MALME-3M melanoma; RPMI-8226 leukemia; HOP-62 NSCLC; SK-MEL-28 melanoma; SK-MEL-5 melanoma; CAKI-1 renal; TK-10 renal; HCC-2998 colon; MDA-MB-231 breast; MDA-N; SK-OV-3 ovarian.
What all share (test): growth of human tumour cells (NCI), 48 h

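Where inhibition never reached the appropriate level, the endpoint shown equals the highest concentration tested. Otherwise, values were interpolated linearly from a five-concentration, 48-hour dose response in 96-well plates. The concentration for full growth arrest is given as TGI.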

Turning to `CCOC(=O)CCC(NC(=O)c1ccc(Nc2cnc3cc(C(F)(F)F)ccc3n2)cc1)C(=O)OCC` (centres undefined), the TGI with COLO 205 colon was above 100 µM; in the experiment with OVCAR-3 ovarian, above 100 µM; in the experiment on SF-295 CNS it was 26 µM; with MCF7 breast it was above 31.6 µM; with SN12C renal, above 100 µM; in the experiment on UO-31 renal, above 100 µM. In addition, the TGI in the experiment with NCI-H460 lung is above 100 µM; in the experiment on MALME-3M melanoma, above 100 µM; in the experiment on RPMI-8226 leukemia it was above 100 µM; in the experiment on HOP-62 NSCLC, 34.7 µM; in the experiment with SK-MEL-28 melanoma, above 100 µM; in the experiment with SK-MEL-5 melanoma, above 100 µM. In addition, the TGI was 47 µM in the experiment with CAKI-1 renal; above 100 µM with TK-10 renal; above 100 µM in the experiment on HCC-2998 colon; above 100 µM in the experiment on MDA-MB-231 breast; above 100 µM in the experiment on MDA-N.
For `COc1cc(/C=C2\N=C(c3ccccc3)N(c3nc4cc(C)c(C)cc4s3)C2=O)cc(OC)c1OC`, the TGI with COLO 205 colon is above 100 µM; in the experiment with OVCAR-3 ovarian, 49.1 µM; in the experiment on SF-295 CNS, above 100 µM; in the experiment on MCF7 breast it was 43 µM; in the experiment on SN12C renal it was 99.1 µM; in the experiment on UO-31 renal, above 100 µM. Further, the TGI was above 100 µM in the experiment on NCI-H460 lung; above 100 µM in the experiment on RPMI-8226 leukemia; 66.6 µM in the experiment with HOP-62 NSCLC; above 100 µM with SK-MEL-28 melanoma; above 100 µM in the experiment on SK-MEL-5 melanoma; above 100 µM in the experiment on CAKI-1 renal. For the same molecule, the TGI in the experiment with TK-10 renal is above 100 µM; in the experiment with HCC-2998 colon, 45.7 µM; in the experiment on MDA-MB-231 breast, above 100 µM; in the experiment with MDA-N, 38.9 µM; with SK-OV-3 ovarian it was above 100 µM.
For `CCOc1ncn(-c2ccc(NC(=S)Nc3cnccn3)cc2)n1`, the TGI in the experiment with OVCAR-3 ovarian, in the experiment with SF-295 CNS, in the experiment with MCF7 breast, in the experiment on SN12C renal, in the experiment with UO-31 renal and in the experiment on NCI-H460 lung was above 10 µM throughout. Also, the TGI with MALME-3M melanoma, with TK-10 renal, in the experiment with MDA-MB-231 breast, in the experiment with MDA-N and with SK-OV-3 ovarian was above 10 µM throughout.
Consider `O=S(Nc1ccccc1)c1ccc(-c2ccccc2)cc1` (centres undefined), for which the TGI in the experiment with COLO 205 colon, in the experiment with OVCAR-3 ovarian, with SF-295 CNS, in the experiment on MCF7 breast, in the experiment on SN12C renal and in the experiment with UO-31 renal was above 100 µM in each case. For the same molecule, the TGI in the experiment with NCI-H460 lung, in the experiment with MALME-3M melanoma, in the experiment with RPMI-8226 leukemia, in the experiment on HOP-62 NSCLC, in the experiment with SK-MEL-28 melanoma and in the experiment on SK-MEL-5 melanoma was above 100 µM each time. Moreover, the TGI in the experiment on TK-10 renal, in the experiment on HCC-2998 colon, in the experiment with MDA-MB-231 breast and in the experiment on MDA-N was above 100 µM in each case.
For the molecule `COC(=O)c1ccc(/C=C2\Cc3ccccc3C2=O)cc1`, the TGI in the experiment with COLO 205 colon, in the experiment on OVCAR-3 ovarian, with SF-295 CNS, in the experiment with MCF7 breast, with SN12C renal and in the experiment on UO-31 renal was above 100 µM each time. In addition, the TGI in the experiment with NCI-H460 lung, with RPMI-8226 leukemia, with HOP-62 NSCLC, with SK-MEL-28 melanoma, in the experiment on SK-MEL-5 melanoma and in the experiment on CAKI-1 renal was above 100 µM each time. Also, the TGI in the experiment with TK-10 renal, in the experiment with HCC-2998 colon, in the experiment on MDA-MB-231 breast, with MDA-N and in the experiment with SK-OV-3 ovarian was above 100 µM each time.
Turning to `CC(C)(O)/C=C\P(C)(=O)c1ccccc1` (centres undefined), the TGI in the experiment with COLO 205 colon, in the experiment on OVCAR-3 ovarian, in the experiment with SF-295 CNS, in the experiment on MCF7 breast, in the experiment with SN12C renal and in the experiment with NCI-H460 lung was above 100 µM each time. The TGI in the experiment on MALME-3M melanoma, in the experiment on RPMI-8226 leukemia, with HOP-62 NSCLC, in the experiment with SK-MEL-28 melanoma, in the experiment with SK-MEL-5 melanoma and with CAKI-1 renal was above 100 µM in each case. Further, the TGI in the experiment with TK-10 renal, in the experiment with HCC-2998 colon, in the experiment on MDA-N and with SK-OV-3 ovarian was above 100 µM in each case.
Regarding `Cc1ccc(S(=O)(=O)NC(=O)NC(C(=O)O)C(C)O)cc1` (centres undefined), the TGI in the experiment with COLO 205 colon, with SF-295 CNS, in the experiment with MCF7 breast, in the experiment with SN12C renal, with UO-31 renal and in the experiment on NCI-H460 lung was above 100 µM each time. Moreover, the TGI in the experiment on MALME-3M melanoma, with RPMI-8226 leukemia, in the experiment on HOP-62 NSCLC, in the experiment with SK-MEL-28 melanoma, with SK-MEL-5 melanoma and in the experiment with TK-10 renal was above 100 µM in each case. Moreover, the TGI in the experiment on MDA-MB-231 breast, in the experiment on MDA-N and with SK-OV-3 ovarian was above 100 µM in each case.

Source of the values: PubChem BioAssay (NCI).
